Entries after “also recorded” stand apart in the source; their conditions may differ.
Experiments:
Factor Xa (Homo sapiens) [1] = tested on: T1, Factor Xa (Homo sapiens); assay: Anti-factor Xa activity against PIMH standard, Coatest Heparin test kit; format: biochemical; conditions: compared with standard heparin (HEP1)
T1 construct: purchased Chromogenix
Protocol: Anti Factor Xa activity can be measured against a PIMH standard of known activity (Sigma, UK) using a diagnostic grade Coatest Heparin test kit (Chromogenix, MA), adapted to a 96-well plate format, reading A405 (Polarstar plate reader (BMG LabTechnologies, U.K.))^17.
The anti-factor Xa activity was measured against a PIMH standard of known activity using a diagnostic grade Coatest Heparin test kit (Chromogenix, MA), adapted to a 96-well plate format, reading A405.

OECs and astrocytes = assay: OEC:astrocyte confrontation assay (boundary formation); format: cell-based, Sprague-Dawley rat; conditions: modified heparins 10 μg/ml, 2 days of treatment
Protocol: (§1) All primary neural cultures were generated from Sprague-Dawley rat pups of either sex. As described previously^10,37, purified type 1 astrocytes were prepared by digesting cortices (dissected from 1-day old Sprague Dawley (SD) rats) in 1.33% (w/v) collagenase (Sigma-Aldrich, Gillingham, UK), seeding (˜2×10^7 cells per 75 cm^2 flask) and culturing the cells in poly-L-lysine (PLL, 13.3 μg/ml, Sigma-Aldrich, Gillingham, UK) coated 75 cm2 flasks for 10-12 days. The cells were maintained in DMEM (Invitrogen, Paisley, Scotland) supplemented with 10% (v/v) foetal bovine serum (FBS) (Sigma-Aldrich, Gillingham, UK) and L-glutamine (2 mM, Sigma-Aldrich, Gillingham, UK) (DMEM-FBS). Confluent flasks were shaken on a rotary platform overnight at 37° C. to remove contaminating oligodendrocyte precursor cells. The remaining cells were 85-95% type 1 astrocytes as identified by labelling for glial fibrillary acidic protein (GFAP), an astrocyte cell specific marker.
OECs were isolated from the olfactory bulb of 7 day old SD rat pups and purified using magnetic nanoparticles (STEMCELL Technologies, UK) pre-bound with the p75^NTR antibody (mouse IgG1, Abcam, Cambridge, UK)^30. The cells were grown in low glucose DMEM with 5% (v/v) FBS and 2 mM L-glutamine and further supplemented with DMEM-BS (Bottenstein, 1979), FGF2 (25 ng/ml, Peprotech, London UK), heregulin β-1 (50 ng/ml, R&D Systems, Oxon, UK), forskolin (5×10^-7 M Sigma-Aldrich, Gillingham, UK) and astrocyte conditioned media (ACM) (1:5, fresh serum-free media taken after incubation with a confluent astrocyte monolayer for 48 h)^18, 37.
Confrontation assays were performed as described by Wilby et al. (1999) and Lakatos et al. (2000) with some modifications^10,48. Briefly, 70 μl containing 10,000 OECs or SCs were seeded into one well of a silicon Ibidi culture insert on a PLL-coated glass coverslip (Ibidi GmbH, Munich, Germany). Into the opposing, parallel well, 10,000 astrocytes were seeded. Cells were allowed to attach for 1 h before careful removal of the insert followed by a wash with DMEM-FBS to remove unattached cells. Cultures were maintained in DMEM-FBS and allowed to grow towards each other over a period of 5-7 days, allowing time for cells to make contact and interact^10. In some experiments, modified heparins or blocking antibodies were added to the cultures after the cells had contacted each other. Cultures were then immunolabelled using anti-GFAP for astrocytes (1:500; anti-rabbit (Dako, Ely, UK)) and anti-p75NTR for OECs and SCs (1:1; IgG1; hybridoma supernatant^49. Fluorescent images were captured using an Olympus BX51 fluorescent microscope and Image-Pro software. Using Adobe Photoshop Elements 7.0, a 300 μm line was drawn along the interface between astrocytes and either OECs or SCs. The numbers of OECs or SCs crossing the cell:cell boundary were counted and averaged over five randomly chosen fields. Experiments were repeated at least three times.
Modified heparins were produced semisynthetically by chemical modification (selective desulfation) of heparin as described in Example 1. These structurally distinct, model “HS-mimetic” polysaccharides^50 are useful tools for investigating structure-activity relationships of HS^15-17,31. Heparins were added to confrontation assays at 10 μg/ml at the stage when cells made contact (day 0) and treatment was repeated on day 2. Cultures were fixed and stained as described above on day 3. […]
Purified OECs were seeded at a density of 5000 cells/100 μl into one chamber of an Ibidi culture insert (Ibidi GmbH, Munich, Germany) sealed onto a PLL coated coverslip in a well of a 24-well plate. Cells were cultured in defined OEC medium for 24 h, after which, the medium was replaced with low serum (2% (v/v) FBS) OEC medium containing 1 μM siRNA. siRNA sequences were obtained from Dharmacon/Thermo Scientific (Sulf 1: E-093746-00-0005; Sulf2: E-093673-00-0005; non-targeting: D-001910-01-05; Thermo Fisher Scientific Inc, IL, USA). […]

Factor IIa = molecular target: T2, Factor IIa (Homo sapiens, UniProt P00734+P01008); assay: Factor IIa colorimetric substrate assay with antithrombin III; format: biochemical; conditions: tested up to 100 ug/ml
T2 construct: Factor IIa (Sigma, 15 mU/ml final concentration); purchased Sigma (Factor IIa); American Diagnostica (antithrombin III)
Protocol: (§2) Factor Xa and Factor II activity was measured using a colorimetric substrate assay as previously described^17. Briefly, in a 96 well ELISA plate, antithrombin III (American Diagnostica, 30 mIU/ml final concentration) was incubated with heparin or polysaccharide fractions in 0.9% NaCl at 37° C. for 2 minutes. Factor IIa (Sigma, 15 mU/ml final concentration) or Factor Xa (Thermo Scientific, 15 mU/ml final concentration) was added and the samples incubated for a further 1 minute at 37° C. Factor Xa Chromogenic substrate (Sigma, 240 uM final concentration) was added to the samples and incubated for 10 minutes at 37° C. The reaction was stopped with glacial acetic acid (Sigma, 25% final concentration). Colour change of the substrate was measured at 405 nm.
(§3) For all assays, heparins and polysaccharides were tested up to 100 ug/ml.

SCs and astrocytes = assay: SC:astrocyte confrontation assay (boundary formation); format: cell-based, Sprague-Dawley rat; conditions: modified heparins 10 μg/ml, 2 days of treatment
Protocol: as §1
SCs were purified using a modification of the method described by Brockes and colleagues^20. This modification involved treating the cultures with cytosine arabinoside (AraC, 10^−5 M, Sigma-Aldrich, Gillingham, UK), followed by incubation with anti-Thy1.1 antibody (1:1 supernatant, Sigma-Aldrich, Gillingham, UK) and rabbit complement (1:6, Harlan Laboratories Ltd., UK) to reduce contamination by fibroblasts^10. […]
Confrontation assays were performed as described by Wilby et al. (1999) and Lakatos et al. (2000) with some modifications^10,48. […] Cultures were then immunolabelled using anti-GFAP for astrocytes (1:500; anti-rabbit (Dako, Ely, UK)) and anti-p75NTR for OECs and SCs (1:1; IgG1; hybridoma supernatant^49. Fluorescent images were captured using an Olympus BX51 fluorescent microscope and Image-Pro software. Using Adobe Photoshop Elements 7.0, a 300 μm line was drawn along the interface between astrocytes and either OECs or SCs. The numbers of OECs or SCs crossing the cell:cell boundary were counted and averaged over five randomly chosen fields. Experiments were repeated at least three times. […]

Factor Xa (Homo sapiens) [2] = molecular target: T1, Factor Xa (Homo sapiens); assay: Factor Xa colorimetric substrate assay with antithrombin III; format: biochemical; conditions: tested up to 100 ug/ml
Protocol: as §2, §3

normal human plasma [3] = assay: PT assay; format: biochemical; conditions: tested up to 100 ug/ml
Protocol: (§4) APTT and PT assays were performed using a Axis Shield Thrombotrack 1 instrument using normal human plasma, Pathrombin SL reagent and Thromborel S (all from Axis Shield) reagents according to manufacturers instructions.
as §3

normal human plasma [4] = assay: APTT assay; format: biochemical; conditions: tested up to 100 ug/ml
Protocol: as §4, §3

T1 sequence (P01008 33-464): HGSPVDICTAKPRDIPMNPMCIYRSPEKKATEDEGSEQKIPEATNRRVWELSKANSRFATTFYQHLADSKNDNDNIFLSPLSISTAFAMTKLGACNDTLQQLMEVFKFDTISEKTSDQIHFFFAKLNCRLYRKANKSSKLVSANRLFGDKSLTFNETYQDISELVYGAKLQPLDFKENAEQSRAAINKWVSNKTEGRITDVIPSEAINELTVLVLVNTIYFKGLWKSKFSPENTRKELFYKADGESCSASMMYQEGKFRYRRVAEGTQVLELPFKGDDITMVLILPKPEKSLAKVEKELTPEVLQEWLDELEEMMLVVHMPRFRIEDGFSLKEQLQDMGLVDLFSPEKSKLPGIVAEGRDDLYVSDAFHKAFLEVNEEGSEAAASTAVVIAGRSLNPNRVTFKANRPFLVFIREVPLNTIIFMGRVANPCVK

Substance	Anticoagulant activity (anti-Xa activity) (Factor Xa (Homo sapiens) [1]) [%]	IC50 Factor IIa (Factor IIa)	IC50 Factor Xa (Factor Xa (Homo sapiens) [2])	IC50 PT (normal human plasma [3])	IC50 APTT (normal human plasma [4])	other results
6-O-desulphated heparin [HEP4]	0.5	–	–	–	–	boundary formation between OECs and astrocytes (OECs and astrocytes; listed as Hep 4): lower boundary forming activity; boundary formation between OECs and astrocytes (OECs and astrocytes; listed as Hep4): induced boundaries between OECs and astrocytes
6-O-desulphated, 2-O-desulphated heparin [HEP7]	0.03	NI (No inhibition of coagulation up to 100 ug/ml of compound)	NI (No inhibition of coagulation up to 100 ug/ml of compound)	NI (No inhibition of coagulation up to 100 ug/ml of compound)	NI (No inhibition of coagulation up to 100 ug/ml of compound)	SCs mingling with astrocytes / boundary formation (SCs and astrocytes; listed as Hep 7): increased number of SCs mingling with astrocytes; also recorded: significantly increased cell mingling; boundary formation between OECs and astrocytes (OECs and astrocytes; listed as Hep 7): do not promote boundary formation; boundary formation between OECs and astrocytes (OECs and astrocytes; listed as Hep7): did not
6-O-desulphated, 2-O-desulphated, N-acetylated heparin [HEP8]	0.03	NI (No inhibition of coagulation up to 100 ug/ml of compound)	NI (No inhibition of coagulation up to 100 ug/ml of compound)	NI (No inhibition of coagulation up to 100 ug/ml of compound)	NI (No inhibition of coagulation up to 100 ug/ml of compound)	SCs mingling with astrocytes / boundary formation (SCs and astrocytes; listed as Hep 8): increased number of SCs mingling with astrocytes; also recorded: significantly increased cell mingling; boundary formation between OECs and astrocytes (OECs and astrocytes; listed as Hep 8): do not promote boundary formation; boundary formation between OECs and astrocytes (OECs and astrocytes; listed as Hep8): did not
6-O-desulphated, N-acetylated heparin [HEP6]	0.03	NI (No inhibition of coagulation up to 100 ug/ml of compound)	NI (No inhibition of coagulation up to 100 ug/ml of compound)	NI (No inhibition of coagulation up to 100 ug/ml of compound)	NI (No inhibition of coagulation up to 100 ug/ml of compound)	SCs mingling with astrocytes / boundary formation (SCs and astrocytes; listed as Hep 6): increased number of SCs mingling with astrocytes; also recorded: significantly increased cell mingling; boundary formation between OECs and astrocytes (OECs and astrocytes; listed as Hep 6): do not promote boundary formation; boundary formation between OECs and astrocytes (OECs and astrocytes; listed as Hep6): did not
Ido 2-de-O-sulphated heparin [HEP3]	0.4	–	–	–	–	boundary formation between OECs and astrocytes (OECs and astrocytes; listed as Hep 3): lower boundary forming activity; boundary formation between OECs and astrocytes (OECs and astrocytes; listed as Hep3): induced boundaries between OECs and astrocytes
Ido 2-de-O-sulphated, N-acetylated heparin [HEP5]	0.03	NI (No inhibition of coagulation up to 100 ug/ml of compound)	NI (No inhibition of coagulation up to 100 ug/ml of compound)	NI (No inhibition of coagulation up to 100 ug/ml of compound)	NI (No inhibition of coagulation up to 100 ug/ml of compound)	boundary formation between OECs and astrocytes (OECs and astrocytes): did not
N-acetyl heparin [HEP2]	0.03	–	–	–	–	boundary formation between OECs and astrocytes (OECs and astrocytes; listed as Hep 2): induced significant boundary formation; boundary formation between OECs and astrocytes (OECs and astrocytes; listed as Hep2): induced boundaries between OECs and astrocytes
Per-sulphated heparin [HEP9]	35.0	–	–	–	–	boundary formation between OECs and astrocytes (OECs and astrocytes; listed as Hep 9): induced the strongest boundaries; boundary formation between OECs and astrocytes (OECs and astrocytes; listed as Hep9): induced boundaries between OECs and astrocytes

From patent US9889150B2, “Agents for the prevention and/or treatment of central nervous system damage” (The University Of Liverpool, priority 2012, dated 2018)
